Laboratory results published in patent US6770261B2, “Magnetic resonance imaging agents for the detection of physiological agents” (Research Corporation Technologies, priority 1995, dated 2004).
Where two headings read alike, the source gives them in different places. Values belong to the molecule of their own block, whether it stands above or below them.

How the values were obtained:
[1] = for T1: 0.4 mM
Experimental: The effect of pH on the relaxivity of the complex
The T1 of the Gd3^+-complex (0.4 mM in the buffer containing 100 mM KC1, 10 mM MOPS, 2 mM K2H2EGTA or 2 mM K2CaEGTA) was measured under different pH.

[2] = for T1: 0.4 mM, 1 mM K2H2EGTA
Experimental: The effect of Mg^2+ on the relaxivity of the complex
The T1 of the Gd^3+-complex (0.4 mM in the buffer containing 132 mM KC1, 10 mM MOPS, 1 mM K2H2EGTA, pH 7.20) was measured.

[3] = Excerpt: FIG. 16 depicts the relaxivity of the CalGad complex as a function of calcium ion concentration.
The effect of Ca2^+ on the relaxivity of the complex

[4] = literature value used for comparison (Lauffer); cited from earlier work
β-galactosidase [5] = biological target: T1, β-galactosidase (Escherichia coli, UniProt P00722); details: for increase in signal (enhancement) in the presence of β-galactosidase: upon exposure to β-galactosidase
T1 sequence (P00722 2-1024): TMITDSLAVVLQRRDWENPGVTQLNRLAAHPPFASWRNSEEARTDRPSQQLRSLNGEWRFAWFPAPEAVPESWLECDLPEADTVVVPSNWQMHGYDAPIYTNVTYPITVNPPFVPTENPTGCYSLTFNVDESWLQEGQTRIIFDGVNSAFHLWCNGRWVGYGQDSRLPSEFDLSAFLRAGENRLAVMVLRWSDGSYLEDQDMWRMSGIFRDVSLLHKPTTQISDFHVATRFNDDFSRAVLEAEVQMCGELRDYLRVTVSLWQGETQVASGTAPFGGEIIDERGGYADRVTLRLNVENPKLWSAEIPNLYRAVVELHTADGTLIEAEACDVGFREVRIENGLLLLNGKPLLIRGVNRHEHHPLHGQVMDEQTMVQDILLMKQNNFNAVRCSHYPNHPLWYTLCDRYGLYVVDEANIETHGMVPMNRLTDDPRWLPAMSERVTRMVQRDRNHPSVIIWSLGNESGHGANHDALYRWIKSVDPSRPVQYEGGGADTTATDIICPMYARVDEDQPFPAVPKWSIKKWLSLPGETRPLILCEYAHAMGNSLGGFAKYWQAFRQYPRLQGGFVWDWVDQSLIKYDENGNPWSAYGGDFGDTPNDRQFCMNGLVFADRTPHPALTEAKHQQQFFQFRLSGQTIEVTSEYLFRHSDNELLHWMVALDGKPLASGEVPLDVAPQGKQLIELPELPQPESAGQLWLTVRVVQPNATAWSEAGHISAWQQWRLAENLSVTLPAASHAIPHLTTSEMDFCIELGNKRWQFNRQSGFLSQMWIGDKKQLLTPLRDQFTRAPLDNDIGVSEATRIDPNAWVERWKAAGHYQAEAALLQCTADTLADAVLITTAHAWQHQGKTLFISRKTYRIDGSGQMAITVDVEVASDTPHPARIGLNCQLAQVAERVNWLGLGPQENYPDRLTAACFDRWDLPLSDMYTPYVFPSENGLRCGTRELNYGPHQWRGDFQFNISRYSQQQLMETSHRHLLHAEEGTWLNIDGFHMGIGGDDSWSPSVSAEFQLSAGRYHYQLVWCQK
Experimental: FIG. 9 depicts the change in T1 observed upon the β-galactosidase catalyzed cleavage of the galactopyranose residue (n=3). The first Column of each pair (1,3,5) represents the T1 of the galactose-DOTA complex and β-galactosidase mixture immediately after addition. The second column represents the T1 of the solution after a period of time in the presence of β-galactosidase. Each column is reported as a ratio to a control containing only the complex. Column 1 and 2: 2.0 mM Gd complex plus 1.7 uM β-galactosidase phosphate buffer (25 mM) pH 7.3. Column 3 and 4: 2.0 mM Gd plus 5.1 uM β-galactosidase phosphate buffer (25 mM) pH 7.3. Column 5 and 6: 2 mM Gd complex plus 5.1 uM heat inactivated β-galactosidase (10 minutes at 80 degrees) phosphate buffer (25 mM) pH 7.3. […] A minimal concentration of enzyme was used in these experiments to reduce potential effects of any contrast agent-enzyme interactions. T1 were carried out using a Bruker AMX 500 spectrometer at 26 degrees using a standard inversion-recovery sequence. The solution was placed in a 40 ul round bottomed NMR tube insert (Wilmad glass) and inserted into a tube containing d3-chloroform. A two dimensional data file was collected containing 16 different inversion delays with 8 scans each. The raw nmr data was processed (Felix, BIOSYM/Molecular Simulations, San Diego, Calif.) and the peak heights were fitted to an exponential rise to a max to obtain T1.
The effect of the enzymatic cleavage of the galactopyranose on the T1 of the complex was assessed using NMR spectroscopy.
The effect of the enzymatic cleavage of the galactopyranose unit from EGadMe and CarboxyMe on relaxation time T1 was determined by NMR spectroscopy at 500 MHz and 24° C. Various aqueous solutions of 0.5 mM EGadMe and CarboxyMe, respectively, were prepared, containing either: (a) no enzyme; (b) heat inactivated 5 μM β-galactosidase that was treated at 80° C. for 10 min; (c) 5 μM β-galactosidase where T1 was measured immediately after mixing; or (d) 5 μM β-galactosidase that was reacted with the complex for 3.5 days at 37° C.

β-galactosidase [6] = biological target: T1, β-galactosidase
Description: Characterization: The ability of β-galactosidase to remove the galactopyranosal blocking group from GadGal was examined by HPLC. The cleavage reaction was monitored using the distinct retention times of the complex and the complex without the galactopyranose residue.

[7] = Relaxivity R by NMR spectroscopy at 500 MHz; format: physicochemical; set-up: unit not given here

T1 ([1]; 2 mM K2CaEGTA, pH 6.80): 390 ms | T1 ([1]; 2 mM K2CaEGTA, pH 7.00): 393 ms | T1 ([1]; 2 mM K2CaEGTA, pH 7.20): 394 ms | T1 ([1]; 2 mM K2CaEGTA, pH 7.40): 397 ms | T1 ([1]; 2 mM K2H2EGTA, pH 6.80): 600 ms | T1 ([1]; 2 mM K2H2EGTA, pH 7.00): 605 ms | T1 ([1]; 2 mM K2H2EGTA, pH 7.20): 604 ms | T1 ([1]; 2 mM K2H2EGTA, pH 7.40): 608 ms | effect of changing pH on the relaxivity ([1]; pH 6.80 to 7.40, in the presence or absence of Ca^2+): minimum effects | T1 ([2]; pH 7.20, Mg^2+ 0 mM): 607 ms | T1 ([2]; pH 7.20, Mg^2+ 1 mM): 602 ms | T1 ([2]; pH 7.20, Mg^2+ 2 mM): 601 ms | T1 ([2]; pH 7.20, Mg^2+ 5 mM): 609 ms | T1 ([2]; pH 7.20, Mg^2+ 10 mM): 607 ms | T1 ([2]; pH 7.20, Mg^2+ 20 mM): 610 ms | effect of changing Mg^2+ concentration on the relaxivity ([2]; Mg^2+ 0 to 20 mM): minimum effects | relaxivity R ([3]; in the absence of Ca^2+): 3.03 mM⁻¹ s⁻¹ | relaxivity R ([3]; in the presence of Ca^2+): 5.53 mM⁻¹ s⁻¹
Molecule: O=C([O-])CN1CCN(CCCOc2cccc(OCCOc3cccc(OCCCN4CCN(CC(=O)[O-])CCN(CC(=O)[O-])CCN(CC(=O)[O-])CC4)c3N(CC(=O)O)CC(=O)O)c2N(CC(=O)O)CC(=O)O)CCN(CC(=O)[O-])CCN(CC(=O)[O-])CC1.[Gd+3].[Gd+3] [CalGad, Gd^3+-BAPTA-DO3A2]

Molecule: O=C([O-])CN1CCN(CC(=O)[O-])CCN(CC(=O)O)CCN(CC(=O)[O-])CC1.[Gd+3] [Gd-DOTA]
q (number of coordinating water molecules) [4]: 1.2

Molecule: Do3a-hydroxyethyl-beta-galactose Gadolinium complex [GadGal]
difference between measured T1 values in the presence and absence of β-galactosidase (β-galactosidase [5]; 2.0 mM Gd complex, 1.7 or 5.1 uM β-galactosidase, pH 7.3, 500 MHz): 20% | change of solution T1 with heat inactivated enzyme (β-galactosidase [5]; control, heat inactivated β-galactosidase): no decrease | increase in signal (enhancement) in the presence of β-galactosidase (β-galactosidase [5]; listed as Example 1 compound): roughly 20% | increase in signal (enhancement) in the presence of β-galactosidase (β-galactosidase [5]; listed as galactose-DOTA structure of Example 1): ~20% | cleavage of galactopyranose (HPLC traces) (β-galactosidase [6]; incubated with β-galactosidase for 7 days, phosphate buffer pH 7.3): greater than 95% | enzymatic processing of the complex (HPLC) (β-galactosidase [6]; native vs heat-inactivated β-galactosidase): enzymatic processing of the complex by native but not heat-treated enzyme | relaxivity R [7]: 1800
